From PubChem BioAssay (NCI)
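Step 1: Grow cells in 96-well plates. Step 2: Expose to compound for 48 hours at 5 concentrations. Step 3: Interpolate endpoints linearly; if unreached, use highest concentration. Abbreviation: GI50, concentration required for 50% inhibition of growth. At the TGI there is no net growth.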

How the values were obtained:
Assay in all cases: growth of human tumour cells (NCI), 48 h
[1] = system: OVCAR-4 ovarian
[2] = system: A549 NSCLC
[3] = system: PC-3 prostate
[4] = system: HL-60(TB) leukemia
[5] = system: SK-MEL-2 melanoma
[6] = system: U251 CNS
[7] = system: CAKI-1 renal
[8] = system: RPMI-8226 leukemia
[9] = system: SNB-75 CNS
[10] = system: IGROV1 ovarian
[11] = system: COLO 205 colon
[12] = system: OVCAR-3 ovarian
[13] = system: SF-268 CNS
[14] = system: OVCAR-8 ovarian
[15] = system: SNB-19 CNS
[16] = system: CCRF-CEM leukemia
[17] = system: K-562 leukemia
[18] = system: SK-MEL-5 melanoma
[19] = system: HCT-15 colon
[20] = system: HOP-62 NSCLC
[21] = system: MOLT-4 leukemia
[22] = system: A498 renal
[23] = system: DU-145 prostate
[24] = system: MALME-3M melanoma
[25] = system: MCF7 breast
[26] = system: SF-295 CNS

COc1c/c(=C2/C=c3ccccc3=N2)[nH]/c1=C/c1[nH]c(C)cc1C
GI50 [1]: 0.106 µM | TGI [1]: > 100 µM | GI50 [2]: 0.219 µM | TGI [2]: > 100 µM | GI50 [3]: 0.059 µM | TGI [3]: > 100 µM | GI50 [4]: 0.05 µM | TGI [4]: 2.77 µM | GI50 [5]: 0.029 µM | TGI [5]: 0.119 µM | GI50 [6]: 0.0454 µM | TGI [6]: 1.52 µM | GI50 [7]: 0.0346 µM | TGI [7]: 1.2 µM | GI50 [8]: 0.0533 µM | TGI [8]: 1.95 µM | GI50 [9]: 0.108 µM | TGI [9]: > 100 µM | GI50 [10]: 0.0724 µM | TGI [10]: > 100 µM | GI50 [11]: 0.0659 µM | TGI [11]: 1.26 µM | GI50 [12]: 0.046 µM | TGI [12]: 1.02 µM | GI50 [13]: 0.0309 µM | TGI [13]: > 100 µM | GI50 [14]: 0.0448 µM | TGI [14]: > 100 µM | GI50 [15]: 0.598 µM | TGI [15]: > 100 µM | GI50 [16]: 0.0313 µM | TGI [16]: > 100 µM | GI50 [17]: 0.152 µM | TGI [17]: 9.91 µM | GI50 [18]: 0.0304 µM | TGI [18]: 0.0835 µM | GI50 [19]: 0.0363 µM | TGI [19]: > 100 µM | GI50 [20]: 0.0458 µM | TGI [20]: 0.459 µM | GI50 [21]: 0.0293 µM | TGI [21]: 2.95 µM | GI50 [22]: 0.267 µM | TGI [22]: 4.31 µM | GI50 [23]: 0.15 µM | TGI [23]: > 100 µM | GI50 [24]: 0.277 µM | TGI [24]: 1.62 µM | GI50 [25]: 0.0647 µM | TGI [25]: 2.58 µM | GI50 [26]: 0.149 µM | TGI [26]: 0.628 µM
